In patent publication US20250179047A1, “5-[7-(3,4-DIHYDRO-1H-ISOQUINOLINE-2-CARBONYL)-1,2,3,4 TETRAHYDROISOQUINOLIN-6-YL]-1H-PYRROLE-3-CARBOXAMIDE DERIVATIVES, PHARMACEUTICAL COMPOSITIONS CONTAINING THEM AND THEIR USES AS PRO-APOPTOTIC AGENTS” (LES LABORATOIRES SERVIER, priority 2022, published 2025):

How the values were obtained:
Type in all cases: cell-based
KMS12PE Bcl2 WT = test: In vitro cytotoxicity CellTiterGlo 72 h, KMS12PE Bcl2 WT; conditions: Homo sapiens, KMS-12-PE, read-out: C50 nM, KMS12PE Bcl2 WT
Experimental: (§1) KMS-12-PE (ACC 606) were purchased from the Leibniz-Institute DSMZ (Braunschweig, Germany) and were grown at 37° C. in a humidified atmosphere with 5% CO2 in media recommended by the suppliers. Lentiviral particles containing Bcl-2 wild type (also named “Bcl2 WT”), Bcl-2 mutated on G101V (also named “Bcl2 G101V”), Bcl-2 mutated on D103Y (also named “Bcl2 D103Y”), Bcl-2 mutated on D103V (also named “Bcl2 D103V”), Bcl-2 mutated on D103E (also named “Bcl2 D103E”), Bcl-2 mutated on F104I (also named “Bcl2 F104I”), Bcl-2 mutated on F104L (also named “Bcl2 F104L”), Bcl-2 mutated on D111A (also named “Bcl2 D111A”), Bcl-2 mutated on A113G (also named “Bcl2 A113G”), Bcl-2 mutated on R129L (also named “Bcl2 R129L”), Bcl-2 mutated on V156D (also named “Bcl2 V156D”) were cloned into pcLV-CMV-DEST-IRES-TagRFP. Lentiviral particles (1×10^6) were mixed with Polybrene at 8 μg/ml and transduced by spinoculation for 1 h at 32° C. and incubated overnight. After 8 days, TagRFP positive-cells were sorted by FACS. BCL2 expression was monitored by immunoblotting using anti-Flag and anti-BCL2 antibodies. Cells were seeded into 96-wells plates and treated with 1:3.16 serial dilution of compounds (9 different concentrations). Cell viability was assessed using CellTiterGlo reagent following treatment for 72 h. Results were normalized to the viability of cells without compounds (control wells). The C50 values were calculated using nonlinear regression algorithms in XCell software.

KMS-12-PE Bcl-2 WT = test: In vitro cytotoxicity CellTiter-Glo 48 h, KMS-12-PE Bcl-2 WT; conditions: C50 = concentration needed to reach 50% of the cellular viability
Summary of the method: (§2)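 Bcl-2 WT- and G101V-expressing KMS-12-PE cells; 48 h treatment at 37 °C, 5% CO2; CellTiter-Glo ATP luminescence; C50 from 11-point curves.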

KMS-12-PE Bcl-2 G101V = test: In vitro cytotoxicity CellTiter-Glo 48 h, KMS-12-PE Bcl-2 G101V; conditions: for Ratio (G101V/WT): C50 KMS-12-PE Bcl-2 G101V over C50 KMS-12-PE Bcl-2 WT; for IC50: 48 h, CellTiter-Glo, C50 = concentration needed to reach 50% of the cellular viability
Summary of the method: as §2

KMS12PE Bcl2 D111A = test: In vitro cytotoxicity CellTiterGlo 72 h, KMS12PE Bcl2 D111A; conditions: Homo sapiens, KMS-12-PE, read-out: C50 nM, KMS12PE Bcl2 D111A
Experimental: as §1

| SMILES | IC50 (KMS12PE Bcl2 WT) | IC50 (KMS-12-PE Bcl-2 WT; Homo sapiens, KMS-12-PE) | Ratio (G101V/WT) (KMS-12-PE Bcl-2 G101V) | IC50 (KMS-12-PE Bcl-2 G101V; Homo sapiens, KMS-12-PE) | IC50 (KMS12PE Bcl2 D111A) | IC50 (KMS-12-PE Bcl-2 WT) | IC50 (KMS-12-PE Bcl-2 G101V) |
| --- | --- | --- | --- | --- | --- | --- | --- |
| Cc1c(N(C(=O)c2cc(-c3cc4c(cc3C(=O)N3Cc5ccccc5C[C@H]3C)CN(C(=O)Cc3ccc(OCCN5CCOCC5)cc3)CC4)n(C)c2C)c2ccc(O)cc2)cc(C#N)n1C [Example 21, N-(5-cyano-1,2-dimethyl-1H-pyrrol-3-yl)-N-(4-hydroxyphenyl)-1,2-dimethyl-5-{7-[(3R)-3-methyl-1,2,3,4-tetrahydroisoquinoline-2-carbonyl]-2-(2-{4-[2-(morpholin-4-yl)ethoxy]phenyl}acetyl)-1,2,3,4-tetrahydroisoquinolin-6-yl}-1H-pyrrole-3-carboxamide] | 2.56 nM | 0.0057 µM | 4.02 | 0.023 µM | 1.27 nM |  |  |
| Cc1c(N(C(=O)c2cc(-c3cc4c(cc3C(=O)N3Cc5ccccc5C[C@H]3C)CN(C(=O)Cc3ccc(OCCC5CCOCC5)cc3)CC4)n(C)c2C)c2ccc(O)cc2)cc(C#N)n1C [Example 27, N-(5-cyano-1,2-dimethyl-1H-pyrrol-3-yl)-N-(4-hydroxyphenyl)-1,2-dimethyl-5-{7-[(3R)-3-methyl-1,2,3,4-tetrahydroisoquinoline-2-carbonyl]-2-(2-{4-[2-(oxan-4-yl)ethoxy]phenyl}acetyl)-1,2,3,4-tetrahydroisoquinolin-6-yl}-1H-pyrrole-3-carboxamide] | 1.53 nM | 0.0037 µM | 4.23 | 0.0143 µM | 0.86 nM |  |  |
| Cc1c(N(C(=O)c2cc(-c3cc4c(cc3C(=O)N3Cc5ccccc5C[C@H]3CN3CCCCC3)CN(C(=O)Cc3ccc(OCCN5CCOCC5)cc3F)CC4)n(C)c2C)c2ccc(O)cc2)cc(C#N)n1C [Example 43, N-(5-cyano-1,2-dimethylpyrrol-3-yl)-5-[2-(2-{2-fluoro-4-[2-(morpholin-4-yl)ethoxy]phenyl}acetyl)-7-{[(3S)-3-(piperidin-1-ylmethyl)-3,4-dihydro-1H-isoquinolin-2-yl]carbonyl}-3,4-dihydro-1H-isoquinolin-6-yl]-N-(4-hydroxyphenyl)-1,2-dimethylpyrrole-3-carboxamide] | 1.8 nM |  | 4.82 |  | 1.13 nM | 0.0048 µM | 0.0232 µM |
| Cc1c(N(C(=O)c2cc(-c3cc4c(cc3C(=O)N3Cc5ccccc5C[C@H]3C)CN(C(=O)Cc3ccc(N5CCN6CCOC[C@@H]6C5)cc3F)CC4)n(C)c2C)c2ccc(O)cc2)cc(C#N)n1C [Example 45, 5-[2-(2-{4-[(9aS)-octahydropyrazino[2,1-c][1,4]oxazin-8-yl]-2-fluorophenyl}acetyl)-7-[(3R)-3-methyl-1,2,3,4-tetrahydroisoquinoline-2-carbonyl]-1,2,3,4-tetrahydroisoquinolin-6-yl]-N-(5-cyano-1,2-dimethyl-1H-pyrrol-3-yl)-N-(4-hydroxyphenyl)-1,2-dimethyl-1H-pyrrole-3-carboxamide] | 3.3 nM | 0.005 µM | 6.47 | 0.0324 µM | 2.05 nM |  |  |
| Cc1c(N(C(=O)c2cc(-c3cc4c(cc3C(=O)N3Cc5ccccc5C[C@H]3C)CN(C(=O)Cc3ccc(CCN5CCC(F)(F)CC5)cc3)CC4)n(C)c2C)c2ccc(O)cc2)cc(C#N)n1C [Example 51, N-(5-cyano-1,2-dimethylpyrrol-3-yl)-5-[2-(2-{4-[2-(4,4-difluoropiperidin-1-yl)ethyl]phenyl}acetyl)-7-{[(3R)-3-methyl-3,4-dihydro-1H-isoquinolin-2-yl]carbonyl}-3,4-dihydro-1H-isoquinolin-6-yl]-N-(4-hydroxyphenyl)-1,2-dimethylpyrrole-3-carboxamide] | 2.82 nM | 0.0068 µM | 5.07 | 0.0362 µM | 3.21 nM |  |  |
| COC[C@@H]1Cc2ccccc2CN1C(=O)c1cc2c(cc1-c1cc(C(=O)N(c3ccc(O)cc3)c3cc(C#N)n(C)c3C)c(C)n1C)CCN(C(=O)Cc1ccc(OCCC3CCOCC3)cc1F)C2 [Example 52, N-(5-cyano-1,2-dimethylpyrrol-3-yl)-5-[2-(2-{2-fluoro-4-[2-(oxan-4-yl)ethoxy]phenyl}acetyl)-7-{[(3S)-3-(methoxymethyl)-3,4-dihydro-1H-isoquinolin-2-yl]carbonyl}-3,4-dihydro-1H-isoquinolin-6-yl]-N-(4-hydroxyphenyl)-1,2-dimethylpyrrole-3-carboxamide] | 2.07 nM | 0.0034 µM | 4.08 | 0.0139 µM | 1.21 nM |  |  |
| Cc1c(N(C(=O)c2cc(-c3cc4c(cc3C(=O)N3Cc5ccccc5C[C@H]3C)CN(C(=O)Cc3ccc(OCCN5CCC(F)CC5)cc3)CC4)n(C)c2C)c2ccc(O)cc2)cc(C#N)n1C [Example 53, N-(5-cyano-1,2-dimethyl-1H-pyrrol-3-yl)-5-[2-(2-{4-[2-(4-fluoropiperidin-1-yl)ethoxy]phenyl}acetyl)-7-[(3R)-3-methyl-1,2,3,4-tetrahydroisoquinoline-2-carbonyl]-1,2,3,4-tetrahydroisoquinolin-6-yl]-N-(4-hydroxyphenyl)-1,2-dimethyl-1H-pyrrole-3-carboxamide] | 2.88 nM | 0.0072 µM | 5.12 | 0.0337 µM | 2.19 nM |  |  |
| Cc1c(N(C(=O)c2cc(-c3cc4c(cc3C(=O)N3Cc5ccccc5C[C@H]3C)CN(C(=O)Cc3ccc(OCCN5CCSCC5)cc3)CC4)n(C)c2C)c2ccc(O)cc2)cc(C#N)n1C [Example 55, N-(5-cyano-1,2-dimethyl-1H-pyrrol-3-yl)-N-(4-hydroxyphenyl)-1,2-dimethyl-5-{7-[(3R)-3-methyl-1,2,3,4-tetrahydroisoquinoline-2-carbonyl]-2-(2-{4-[2-(thiomorpholin-4-yl)ethoxy]phenyl}acetyl)-1,2,3,4-tetrahydroisoquinolin-6-yl}-1H-pyrrole-3-carboxamide] | 2.61 nM | 0.0062 µM | 4.22 | 0.026 µM | 2.2 nM |  |  |
| Cc1c(N(C(=O)c2cc(-c3cc4c(cc3C(=O)N3Cc5ccccc5C[C@H]3CN3CCCCC3)CN(C(=O)Cc3ccc(OCCC5CCOCC5)cc3)CC4)n(C)c2C)c2ccc(O)cc2)cc(C#N)n1C [Example 66, N-(5-cyano-1,2-dimethylpyrrol-3-yl)-N-(4-hydroxyphenyl)-1,2-dimethyl-5-[2-(2-{4-[2-(oxan-4-yl)ethoxy]phenyl}acetyl)-7-{[(3S)-3-(piperidin-1-ylmethyl)-3,4-dihydro-1H-isoquinolin-2-yl]carbonyl}-3,4-dihydro-1H-isoquinolin-6-yl]pyrrole-3-carboxamide] | 1.74 nM | 0.006 µM | 5.46 | 0.033 µM | 1.57 nM |  |  |
| Cc1c(C(=O)N(c2ccc(O)cc2)c2cc(C#N)n(C(F)F)c2C)cc(-c2cc3c(cc2C(=O)N2Cc4ccccc4C[C@H]2CN2CCCCC2)CN(C(=O)Cc2ccc(OCCN4CCOCC4)cc2)CC3)n1C [Example 77] | 4.75 nM | 0.0084 µM | 5.1 | 0.0487 µM | 3.64 nM |  |  |
| Cc1c(C(=O)N(c2ccc(O)cc2)c2cc(C#N)n(C(F)F)c2C)cc(-c2cc3c(cc2C(=O)N2Cc4ccccc4C[C@H]2CN2CCCCC2)CN(C(=O)Cc2ccc(OCCN4CCOCC4)cc2F)CC3)n1C [Example 78, N-[5-cyano-1-(difluoromethyl)-2-methylpyrrol-3-yl]-5-[2-(2-{2-fluoro-4-[2-(morpholin-4-yl)ethoxy]phenyl}acetyl)-7-{[(3S)-3-(piperidin-1-ylmethyl)-3,4-dihydro-1H-isoquinolin-2-yl]carbonyl}-3,4-dihydro-1H-isoquinolin-6-yl]-N-(4-hydroxyphenyl)-1,2-dimethylpyrrole-3-carboxamide] | 1.41 nM | 0.005 µM | 5.98 | 0.0299 µM | 1.14 nM |  |  |
| Cc1c(N(C(=O)c2cc(-c3cc4c(cc3C(=O)N3Cc5ccccc5C[C@H]3CN3CCC[C@H](C)C3)CN(C(=O)Cc3ccc(OCCN5CCOCC5)cc3F)CC4)n(C)c2C)c2ccc(O)cc2)cc(C#N)n1C [Example 107] | 1.59 nM | 0.0034 µM | 4.47 | 0.0166 µM | 1.36 nM |  |  |
